Source: patent US7144912B2, “Pyrrole-type compounds, compositions, and methods for treating cancer, treating viral diseases and causing immunosuppression” (Gemin X Biotechnologies Inc., priority 2001, dated 2006)

Experiments:
[1] = system: H1299 non-small cell lung carcinoma cells; experiment: caspase activation in lysates of treated cells (apoptosis); assay type: cell-based; conditions: H1299 cancer cell line; 16 hr incubation; positive = 1.5-fold (150%) of dimethyl sulfoxide control
Description: (§1) H1299 non-small cell lung carcinoma cells, C33A cervical carcinoma cells, Mrc-5 normal lung fibroblasts (American Type Culture Collection, Manassas, Va. USA) and HMEC normal mammary epithelial cells (Clonetics San Diego, Calif., USA) were maintained in media recommended by the American Type Culture Collection. Cells were harvested and suspended at 2.5–5×10^5 cells/ml in media. A 45 μL aliquot of cell suspension was added to each well of a 96-well microtiter plate (PerkinElmer Life Sciences Inc, Boston, Mass. USA). Cells were incubated overnight in a 5% CO2-95% humidity incubator at 37° C. and then, 5 μL of a 10% dimethyl sulfoxide (Sigma-Aldrich Inc., St. Louis, Mo. USA) solution containing various concentrations of Compound 79 or 5 μL of 10% dimethyl sulfoxide (solvent control) were added. The plates were further incubated for 16 hr. […]
(§2) The reaction was then filtered using Sephadex G-10 Poly-Prep chromatography column (Amersham Biosciences, Inc, Piscataway, N.J., USA). […] The number of radioactive counts per minute (cpm) in each well of the sample plate was measured using a liquid scintillation counter (PerkinElmer Life Sciences Inc, Boston, Mass. USA). The potency of caspase cascade activation was determined by the percentage increase in cpm in wells compared to cells treated only with dimethyl sulfoxide.

[2] = system: C33A cervical carcinoma cells; experiment: as above; assay type: cell-based; conditions: C33A cancer cell line; 16 hr incubation; positive = 1.5-fold (150%) of dimethyl sulfoxide control
Description: as §1, §2

With `COC1=CC(c2ccc[nH]2)=N/C1=C/c1cc2ccccc2[nH]1` [Compound 79, 4-methoxy-5-(1H-indol-2yl-methylene)-2,2′-bi-1H-pyrrole] the “Concentration Required for Positive Caspase Activation” value [1] was 250 µM and the “Concentration Required for Positive Caspase Activation” value [2] was 125 µM.
